tested on: V79; test: Cytotoxic effect of compound was measured in lipid V79cell formulation.; assay type: functional, cell-based; settings: Cricetulus griseus

Question: How did the IC50 turn out when CCCCCCCCCCCCCCCCCCOCC(CN)OCCCCCCCCCCCC (stereo not given) was run?
Answer: The IC50 was 76 µM.

Question: For CCCCCCCCCCCCOCC(CN)OCCCCCCCCCCCC (stereo not given), which IC50 is on record?
Answer: Its IC50 is 75 µM.

Question: Which IC50 does the source give for CCCCCCCCCCCCOCC(CNC(=O)[C@@H](N)CCCCN)OCCCCCCCCCCCC (stereo not given in full) here?
Answer: Its IC50 is 34 µM.

Question: How did the IC50 turn out when CCCCCCCCCCCCOCC(CNC(=O)[C@@H](N)CCCN=C(N)N)OCCCCCCCCCCCC (stereo not given in full) was run?
Answer: Its IC50 is 20 µM.

Question: Which IC50 does the source give for CCCCCCCCCCCCCCCCCCOCC(CN)OCCCCCCCCCCCCCCCCCC (stereo not given) here?
Answer: The IC50 was 67 µM.

Source: ChEMBL document CHEMBL1135738, “Synthesis of novel cationic lipids: effect of structural modification on the efficiency of gene transfer” (J Med Chem, 2002)
